Data reported in patent US11235059B2, “Afucosylated anti-FGFR2IIIB antibodies” (Five Prime Therapeutics, Inc., priority 2013, dated 2022).

How the values were obtained:
OCUM-2M cells [1] = test: ADCC assay, EC50 by curve fitting (Example 5); format: cell-based, human; conditions: E:T 25:1, 16 hours, percent specific lysis
Experimental: (§1) Ba/F3 FGFR2IIIb-expressing target cells were generated as described before. OCUM-2M cells were obtained from Osaka City University, Osaka, Japan. All cells were cultured using standard methods. Freshly isolated PMBC from healthy donors were obtained from AllCells, Emeryville, Calif.
(§2) ADCC assays were conducted using freshly isolated human PBMCs as effector cells at an effector to target (E:T) cell ratio of 25:1. The target cells were incubated for 16 hours in the presence of effectors and increasing concentrations of antibody. All conditions were tested in triplicate. Cytotoxicity was determined by quantifying LDH release as per the manufacturer's recommendations (Promega's CytoTox Non-Radioactive Cytotoxicity Assay). For the OCUM-2M cells, maximal lysis was determined in the presence of 5% Triton X-100, and spontaneous release was determined in the absence of antibody. Percentage of specific lysis was calculated as a percentage of maximal lysis less spontaneous release, as follows: (experimental−spontaneous release)/(maximal−spontaneous release)×100=% specific lysis. GraphPad software curve-fitting analysis was used to obtain EC50 values.

[2] = system: OCUM-2M human gastric cancer xenograft with FGFR2 amplification; test: OCUM-2M gastric cancer xenograft model; format: in vivo, CB17 SCID mice; conditions: for tumor response: 10 mg/kg intraperitoneal twice per week
Text: Six week old female CB17 SCID mice were purchased from Charles River Laboratories (Wilmington, Mass.) and were acclimated for 1 week before the start of the study. Human gastric carcinoma cell line OCUM-2M or breast carcinoma cell line MFM-223 were used as the tumor models. OCUM-2M was purchased from Public University Corporation Osaka City University (OCU, Osaka, Japan), and MFM-223 was purchased from Culture Collections, Public Health England (98050130, HPA Culture Collections, Salisbury, UK). The cells were cultured for up to three passages in complete growth medium to expand for implantation. OCUM-2M and MFM-223 cells were cultured in Dulbecco's […] (DMEM) and Minimum Essential Medium (MEM), respectively. All medium was supplemented with 10% heat-inactivated Fetal Bovine Serum (FBS), 2 mM L-Glutamine, and Penicillin-Streptomycin solution. Cells were grown at 37° C. in a humidified atmosphere with 5% CO2.
When the cultured cells reached 85-90% confluence, cells were harvested and resuspended in cold Ca^2+ and Mg^2+ free phosphate buffered saline (PBS) containing 50% Matrigel (BD BioSciences, San Jose, Calif.). OCUM-2M cells were implanted subcutaneously over the right flank of the mice at 5×10^5 cells/100 μl/mouse. MFM-223 cells were implanted subcutaneously over the right flank of the mice at 5×10^5 cells/100 μl/mouse, and 0.72 mg 90-day release […] estradiol pellets (Innovative Research of America, Sarasota, Fla.) were inoculated subcutaneously into the right flank. Mice were monitored twice weekly following cell implantation for tumor growth. Tumor size was measured according to the formula: Tumor size (mm^3)=([…])/2. When MFM-223 tumors reached 80 mm^3 mice were sorted and randomized (n=10), and treatment was initiated. For OCUM-2M tumors, single therapy with anti-FGFR2b was initiated once tumors reached an average size of 100 mm^3, and combination therapy was initiated once tumors reached an average size of 250 mm^3.
(§3) Chemotherapeutic agents were administered via intraperitoneal injection twice per week at 12 mg/kg for paclitaxel, 2.3 mg/kg for fluorouracil (5-FU), and 33 mg/kg for cisplatin. Upon initiation of therapy, tumor sizes were measured in each mouse twice weekly. The length and width of each tumor was measured using calipers and the tumor size calculated according to the formula above. Mice were euthanized when the subcutaneous tumor volumes exceeded 2000 mm^3 or when the tumors became excessively necrotic.
Comparisons of tumor volume […] determined to be statistically significant if P<0.05. P-values were calculated using unpaired, two-tailed t-test analyses of the calculated tumor volumes on the final day upon which tumors were measured.

MFM 223 cells = test: ADCC assay with human PBMC effectors, LDH release (Example 3); format: cell-based; conditions: data not shown
Experimental: (§4) MFM-223 cells were obtained from the Health Protection Agency, UK; OCUM-2M cells were obtained from Osaka City University, Osaka, Japan; and KATO III cells were obtained from ATCC, Rockville, Md. All cells were cultured using standard methods. Freshly isolated PMBC from healthy donors were obtained from AllCells, Emeryville, Calif.
(§5) ADCC assays were conducted using effector cells from 3 independent donors on 3 different days. ADCC assay testing was performed using freshly isolated human PBMCs as effector cells at an effector to target (E/T) cell ratio of 25:1. The target cells were incubated for 16 hours in the presence of effectors and increasing concentrations of antibody. The ADCC assay was validated using 2 positive control antibodies, HERCEPTIN® on SKOV-3 target cells and RITUXIN® on Raji target cells. A fully human IgG1 negative control antibody (Eureka Therapeutics, Catalog ET901, Emeryville, Calif.) was used for non-specific cell cytotoxicity. Cytotoxicity was determined by quantifying LDH release as per the manufacturer's instructions (CytoTox Non Radioactive Cytotoxicity Assay, Promega, Madison, Wis.).
(§6) Maximal lysis was determined in the presence of 5% Triton X-100, and spontaneous release was determined in the absence of antibody. Percentage of specific lysis was calculated as follows, as a percentage of maximal lysis less spontaneous release: (experimental−spontaneous release)/(maximal−spontaneous release)×100=% specific lysis

KATO III cells = test: as above; format: cell-based; conditions: E/T 25:1, 16 hours; data not shown
Experimental: as §4, §5, §6

OCUM-2M cells [3] = test: as above; format: cell-based; conditions: data not shown
Experimental: as §4, §5, §6

[4] = system: FGFR2IIIb-expressing Ba/F3 cells; test: as above; format: cell-based; conditions: E/T 25:1, 16 hours
Experimental: Ba/F3 FGFR2IIIb-expressing target cells were produced as follows. Ba/F3 cells acquired from Leibniz-Institut DSMZ-Deutsche Sammlung von Mikroorganismen and Zellkulturen GmbH (DSMZ, cat #ACC300, Braunschweig, Germany) were maintained in RPMI (Mediatech, cat #10-041-CV, Manassas, Va.), supplemented with 10% fetal bovine serum (Mediatech, cat #35-010-CV), 1 ng/mL murine IL-3 (Peprotech, cat #213-13, Rocky Hill, N.J.), 1×BME (Invitrogen, cat #1047574, Grand Island, N.Y.), and 1× Penicillin-streptomycin (Mediatech cat #30-002-C1). […]
ADCC assays were conducted using effector cells from 3 independent donors on 3 different days. […] Cytotoxicity was determined by quantifying LDH release as per the manufacturer's instructions (CytoTox Non Radioactive Cytotoxicity Assay, Promega, Madison, Wis.).
as §6

[5] = system: Ba/F3 FGFR2IIIb-expressing target cells; test: ADCC assay, EC50 by curve fitting (Example 5); format: cell-based; conditions: FIG. 9
Experimental: as §1, §2

[6] = system: MFM-223 human breast cancer xenograft; test: MFM-223 breast cancer xenograft model; format: in vivo, CB17 SCID mice; conditions: 5 mg/kg
Text: Six week old female CB17 SCID mice were purchased from Charles River Laboratories (Wilmington, Mass.) and were acclimated for 1 week before the start of the study. Human gastric carcinoma cell line OCUM-2M or breast carcinoma cell line MFM-223 were used as the tumor models. OCUM-2M was purchased from Public University Corporation Osaka City University (OCU, Osaka, Japan), and MFM-223 was purchased from Culture Collections, Public Health England (98050130, HPA Culture Collections, Salisbury, UK). The cells were cultured for up to three passages in complete growth medium to expand for implantation. […]
When the cultured cells reached 85-90% confluence, cells were harvested and resuspended in cold Ca^2+ and Mg^2+ free phosphate buffered saline (PBS) containing 50% Matrigel (BD BioSciences, San Jose, Calif.). […] Mice were monitored twice weekly following cell implantation for tumor growth. Tumor size was measured according to the formula: Tumor size (mm^3)=(width (mm)×length (mm)^2)/2. […]
as §3, with “Mice were euthanized when the subcutaneous tumor volumes exceeded 2000 mm^3 or when the tumors became excessively necrotic.” left out

Substance | EC50 (ADCC) (OCUM-2M cells [1]) [µg/mL] | tumor response [2] | ADCC activity compared with αFGFR2bF (MFM 223 cells; E/T 25:1, 16 hours) | maximal specific lysis compared with αFGFR2bF (MFM 223 cells) | ADCC activity compared with αFGFR2bF (KATO III cells) | ADCC activity compared with αFGFR2bF (OCUM-2M cells [3]; E/T 25:1, 16 hours) | maximal specific lysis compared with αFGFR2bF (OCUM-2M cells [3]) | specific lysis compared with αFGFR2bF [4] | ADCC potency compared with αFGFR2bF [5] | final tumor size compared to albumin control [6] | tumor growth compared to albumin control ([6]; start at about 80 mm^3) | final tumor size compared with αFGFR2bF ([2]; 3 mg/kg) | tumor growth compared with αFGFR2bF ([2]; 3 mg/kg) | tumor regression and durability compared with αFGFR2bF ([2]; 3 mg/kg) | durability of response compared with αFGFR2bF ([2]; 10 mg/kg) | final tumor size compared with αFGFR2bF ([2]; 10 mg/kg) | final tumor size ([2]; 1 to 5 mg/kg, higher doses more potent) | tumor growth suppression ([2]; 2, 1.5, and 1 mg/kg) | tumor growth suppression ([2]; 3 and 5 mg/kg) | tumor growth ([2]; all doses: 1, 1.5, 2, 3, or 5 mg/kg, start at about 100 mm^3)
αFGFR2bF: fucosylated anti-FGFR2IIIb humanized antibody with the same amino acid sequences as αFGFR2bA, produced in CHOK1SV cells [reference compound] | 0.03 | immediate tumor regression |  |  |  |  |  |  |  |  |  |  |  |  |  |  |  |  |  | 
αFGFR2bA: afucosylated humanized anti-FGFR2IIIb monoclonal antibody produced in Potelligent CHOK1SV cells; heavy chain SEQ ID NO: 2, light chain SEQ ID NO: 3 | 0.005 | immediate tumor regression | greater ADCC activity at lower concentrations | comparable | greater ADCC activity at lower concentrations | greater ADCC activity at lower concentrations | comparable | greater specific lysis | higher potency | significantly reduced final MFM-223 tumor size | dramatically reduced growth of MFM-223 tumors | notably reduced final OCUM-2M tumor size | reduced tumor growth | greater tumor regression and durable response | more durable response | significantly reduced final OCUM-2M tumor size | reduced final OCUM-2M tumor size | reduced growth suppression | greatest suppression and durable response | inhibited tumor growth
